# Reference: patent US20260055081A1, “Metal Chelator Compounds, Coordination Complexes, and Methods of Preparation and Use Thereof” (University of Puerto Rico, priority 2022, published 2026)
# How the values were obtained:
# Breast cancer cell lines = test: NCI 60 five-dose screen, breast panel; assay type: cell-based, human; conditions: 48 h
# Method: (§1) National Cancer Institute Cancer Cell Line (NCI 60) Screen of DefNEtTrp. Details of the methodology for NCI 60 cell line screening are described at http://dtp.nci.nih.gov/branches/btb/ivclsp.html. The cells, grown in supplemented RPMI-1640 medium, are seeded in 96 well plates at an appropriate density and incubated for 24 h. The test compounds are dissolved in DMSO and incubated with cells at a single dose of 10.0 μM for 48 h. The assay is terminated by addition of cold trichloroacetic acid, and the cells are fixed and stained with sulforhodamine B. Bound stain is solubilized, and the absorbance is read on an automated plate reader. […] Using the seven absorbance measurements [time zero, […], control growth, (C), and test growth in the presence of drug at the five concentration levels (Tf)], the percentage growth was calculated at each of the drug concentrations levels as: [(Tf−Ti)/(C−Ti)]×100 for concentrations for which Tf≥Ti and [(Tf−Ti)/Ti]×100 for concentrations for which Tf<Ti. Three-dose response parameters (GI50, TGI, and LC50) were calculated for each of the experimental agents in five dose assay. […] The total growth inhibition (TGI) was calculated from Tf=Ti, which was the drug concentration resulting in total growth inhibition and signified the cytostatic effect. […]
# Leukemia cell lines = test: NCI 60 five-dose screen, leukemia panel; assay type: cell-based, human
# Method: National Cancer Institute Cancer Cell Line (NCI 60) Screen of DefNEtTrp. Details of the methodology for NCI 60 cell line screening are described at http://dtp.nci.nih.gov/branches/btb/ivclsp.html. The cells, grown in supplemented RPMI-1640 medium, are seeded in 96 well plates at an appropriate density and incubated for 24 h. The test compounds are dissolved in DMSO and incubated with cells at a single dose of 10.0 μM for 48 h. The assay is terminated by addition of cold trichloroacetic acid, and the cells are fixed and stained with sulforhodamine B. Bound stain is solubilized, and the absorbance is read on an automated plate reader. […] Using the seven absorbance measurements [time zero, […], control growth, (C), and test growth in the presence of drug at the five concentration levels (Tf)], the percentage growth was calculated at each of the drug concentrations levels as: [(Tf−Ti)/(C−Ti)]×100 for concentrations for which Tf≥Ti and [(Tf−Ti)/Ti]×100 for concentrations for which Tf<Ti. Three-dose response parameters (GI50, TGI, and LC50) were calculated for each of the experimental agents in five dose assay. Growth inhibition of 50% (GI50) was calculated from 100×[(Tf−Ti)/(C−Ti)]=50, which was the drug concentration resulting in a 50% reduction in the net protein increase (as measured by sulforhodamine B, SRB staining) in control cells during the drug incubation. The total growth inhibition (TGI) was calculated from Tf=Ti, which was the drug concentration resulting in total growth inhibition and signified the cytostatic effect. The 50% cellular death (LC50) was calculated from 100×[(Tf−Ti)/Ti]=−50, indicating a net loss of cells following treatment which indicated the concentration of drug resulting in a 50% reduction in the measured protein at the end of the drug treatment as compared to that at the beginning. […] Log GI50, log TGI, and log LC50 are the logarithm molar concentrations producing 50% growth inhibition (GI50), a total growth inhibition (TGI), and a 50% cellular death (LC50), respectively.
# [1] = test system: MRC-5 noncancer lung cell line; test: MRC-5 cell viability (MTT assay); assay type: cell-based, human; conditions: concentration range examined, maximum 100 μM; 72 h
# Method: MRC-5 cell viability studies. A thawed stock of MRC-5 cells was washed with 1×PBS and resuspended in phenol red DMEM media (supplemented with 10% FBS and 1% penicillin-streptomycin) and then seeded in a 100 mm×20 mm (complete, O.D.×H) petri dish and grown in a 5% (v/v) CO2 humidified atmosphere at 37° C. At least three passages were performed to ensure the integrity of the cells. After this point, cells were collected, thoroughly washed with 1×PBS, and then resuspended in phenol red-free DMEM (supplemented with 10% FBS, 1% penicillin-streptomycin, and 2.4 mM L-glutamine) at a 2.0×10^5 cells/mL concentration. A volume of 50 μL of cells was seeded into 96-well plates. Cells were incubated for 24 h. Stock solutions of DefNEtTrp were prepared fresh in DMF at concentrations of 20,000, 10,000, 5,000, 2,000, 1000, 200, 80, and 40 μM. The solutions were diluted 100-fold in 1×PBS to obtain a second set of stock solutions with 1% DMF(v/v). The MRC-5 cells were treated with 50 μL of DefNEtTrp compound solution from the second set of stock solutions to obtain final concentrations of 100, 50, 25, 10, 5, 1, 0.4, and 0.2 μM with 0.5% DMF (v/v). Control wells were the same type of controls as in the Jurkat cell work. Cells were incubated for 68 h and the MTT assay was performed exactly as described for the Jurkat cells.
# Jurkat cells [2] = test: Fe(III) supplementation cell viability study; assay type: cell-based, human; conditions: Jurkat supplemented with 2 μM and 5 μM Fe(III) as Fe(Citrate)2 two hours before 2 μM DefNEtTrp, 72 h
# Method: Fe(III) supplementation cell viability study. Jurkat cells were seeded into 96-well plates, as indicated in the MTT assay described above. One group of cells was supplemented with 2 μM [Fe(citrate)2]^5− (prepared in situ) while another was supplemented with 5 μM [Fe(citrate)2]^5−. Another group of cells were treated with media alone. After 2 h incubation, half of the cells supplemented with [Fe(citrate)2]^5− were treated with 2 μM DefNEtTrp while the other half was treated with media alone. The final percentage of DMF was maintained at 0.5% (v/v). The MTT assay was performed with these samples (n=6). A student t-test was performed to evaluate the difference in the viability of cells treated with DefNEtTrp and supplemented with and without [Fe(citrate)2]^5−.
# Jurkat cells [3] = test: Co-treatment with Q-VD-OPh and Fer-1, cell viability; assay type: cell-based, human; conditions: 10 μM Fer-1/Q-VD-OPh, treatment with 2 μM, 72 h
# Method: FIG. 23 is a bar graph showing observed changes in the % cell viability of Jurkat cells treated with 10 μM Ferrastatin-1/Q-VD-OPh (Fer-1/Q-V-O) in combination and then treated for 72 h with 2 μM DefNetTrp (DNT), or media alone. * p-value <0.01 vs the corresponding non-treated Fer-1/Q-V-O group.
# Melanoma cell lines = test: NCI 60 five-dose screen, melanoma panel; assay type: cell-based, human; conditions: 48 h
# Method: as §1
# [4] = test system: Non-Small Cell Lung cancer cell lines; test: NCI 60 five-dose screen, non-small cell lung panel; assay type: cell-based, human; conditions: 48 h
# Method: as §1
# [5] = test system: Ovarian cancer cell lines; test: NCI 60 five-dose screen, ovarian panel; assay type: cell-based, human; conditions: 48 h
# Method: as §1
# Jurkat cells [6] = test: Apoptosis mechanistic cell viability study (Q-VD-OPh); assay type: cell-based, human; conditions: 10 μM Q-VD-OPh pretreatment, 2 μM DefNEtTrp, 72 h
# Method: Apoptosis mechanistic cell viability study. Jurkat cells were seeded into 96-well plates, as indicated in the MTT assay described above. The cells were treated with 10 μM of the apoptosis inhibitor Q-VD-OPh (Q-V-O). Another group of cells were treated with media alone. After 1 h incubation, half of the cells supplemented with Q-V-O were treated with 2 μM DefNEtTrp or 2 μM cisplatin, as positive control, while the other half was treated with media alone. The final percentage of DMF was maintained at 0.5% (v/v). The MTT assay was performed with these samples (n=6). A student t-test was performed to evaluate the difference in the viability of cells treated with DefNEtTrp or cisplatin and supplemented with and without Q-V-O.
# Renal cancer cell lines = test: NCI 60 five-dose screen, renal panel; assay type: cell-based, human; conditions: 48 h
# Method: as §1
# [7] = Aqueous solubility (observation); assay type: physicochemical
# [8] = cell lines in which TGI was observed
# [9] = Homo sapiens, read-out: GI50 (calculated average)
smiles,measurement,setting,value
"Nc1cccnc1/C=N/NC(=S)NCCNC(=O)c1ccc(-n2nc(-c3ccccc3O)nc2-c2ccccc2O)cc1 [DefNEtTrp, deferasirox nitrogen ethyl triapine]",TGI (calculated average),Breast cancer cell lines; [8],4840 nM
same,GI50,Breast cancer cell lines; [9],450 nM
same,GI50,"Leukemia cell lines; Homo sapiens, Leukemia, five-dose, 48 h, read-out: GI50 (calculated average)",290 nM
same,TGI (calculated average),"Leukemia cell lines; Leukemia, five-dose, 48 h, cell lines in which TGI was observed",1780 nM
same,antiproliferative behavior against all leukemia cell lines in the NCI screen,Leukemia cell lines; NCI screen,~100%
same,antiproliferative behavior against MRC-5,[1],no antiproliferative behavior
same,viability relative to the non-supplemented group,Jurkat cells [2],significant increase in viability
same,change in viability with equimolar Q-VD-OPh and Fer-1 co-treatment,Jurkat cells [3],three-fold increase in the viability
same,TGI (calculated average),Melanoma cell lines; [8],4730 nM
same,GI50,Melanoma cell lines; [9],610 nM
same,TGI (calculated average),[4]; [8],6330 nM
same,GI50,[4]; [9],730 nM
same,TGI (calculated average),[5]; [8],9820 nM
same,GI50,[5]; [9],1120 nM
same,change in viability of cells pretreated with Q-VD-OPh,Jurkat cells [6],two-fold increase in viability
same,TGI (calculated average),Renal cancer cell lines; [8],13710 nM
same,GI50,Renal cancer cell lines; [9],4970 nM
same,water solubility,[7],limited water solubility
